Experimental data as given in patent US20110014137A1, “METHODS FOR PROTECTING THE SKIN FROM RADIATION INSULTS” (priority 2007, published 2011).
“Also recorded” adds a separate entry of the source. Read-outs that look alike come from different tables or passages of the source. Blank lines part the entries; values can stand above or below the compound they belong to.

Tests used:
[1] = test system: UVB-pretreated high-risk mice; assay: UVB radiation-induced skin carcinogenesis in high-risk mice, dietary administration; assay type: in vivo; details: for reduction of tumor incidence (percent animals with tumors) / reduction of tumor multiplicity (number of tumors per mouse): 13 weeks; for reduction of tumor multiplicity (number of tumors per mouse): diet; for number of tumors per mouse: control 4.3
Procedure: Seeds of broccoli (Brassica oleracea italica, cv. DeCicco) were used to grow sprouts as described in Example 1. Growth was arrested after 3 days by plunging sprouts into boiling water and allowed to boil for ˜30 min. This treatment inactivated the endogenous sprout myrosinase and extracted the glucosinolates. […] The powder was mixed with the mouse diet (powdered AIN 76A) to give the equivalent of 10 μmol (low dose) or 50 μmol (high dose) of glucoraphanin per 3 grams of diet.
Body weights and formation of tumors larger than 1 mm in diameter were determined weekly.
UVB radiation was provided by a bank of UV lamps (FS72T12-UVB-HO, National Biological Corporation, Twinsburg, Ohio) emitting UVB (280-320 nm, 65% of total energy) and UVA (320-375 nm, 35% of total energy). The radiant dose of UVB was quantified with a UVB Daavlin Flex Control Integrating Dosimeter and further calibrated with an IL-1400 radiometer (International Light, Newburyport, Mass.).
The animals were irradiated for 20 weeks on Tuesdays and Fridays with a radiant exposure of 30 mJ/cm^2/session. One week later, the mice were divided into three groups: 30 animals in each treatment group and 30 animals in the control group. The mice in the two treatment groups received a diet into which was incorporated a freeze-dried broccoli sprout extract powder. The diet of the low dose treatment group included a freeze-dried broccoli sprout extract powder equivalent to 10 μmol/day glucoraphanin, while the diet of the high dose treatment group included a freeze-dried broccoli sprout extract powder equivalent to 50 μmol/day glucoraphanin. […] The mice were fed this diet for 13 weeks.
Tumor volumes were determined by measuring the height, length, and width of each mass that was larger than 1 mm in diameter. The average of the three measurements was used as the diameter and the volume was calculated (v=4πr^3/3). All mice were euthanized on the same day and the size and multiplicity of tumors was determined. Dorsal skins were dissected using a rectangular template (2.5×5 cm) to include the entire treated areas of the mice. Skins were stapled to cardboard, photographed, and fixed in ice-cold 10% phosphate-buffered formalin at 4° C. for 24 h.
Tumor incidence was evaluated using the Kaplan-Meier survival analysis followed by both a stratified log-rank test and a Wilcoxon test, for equality of survivor functions. Tumor multiplicity was evaluated by ANOVA and comparisons were made on all treatments and on individual, paired treatments (t-test). Tumor volume was evaluated by ANOVA with treatment time as a nested variable. These calculations were performed using Stata 7.0 (College Station, Tex.). Other statistics were calculated using Excel.

[2] = Plasma levels of sulforaphane and its metabolites after chronic dietary treatment; assay type: in vivo, mice
Description: These levels are adequate to expect biological effects.

[3] = mice, dietary; cited from earlier work
glutathione [4] = details: 24 h exposure, serial dilutions
Procedure: (§1) Cells (20,000 per well) were plated on 96-well plates and exposed to a series of concentrations of sulforaphane. GSH and NQO1 levels were measured in cell lysates after 24 h and 48 h, respectively. Each data point represents the average of the measurements from 8 different wells.
(§2) HaCaT human keratinocytes (a gift from G. Tim Bowden, Arizona Cancer Center, Tucson) were cultured in Dulbecco's modified Eagle's medium (DMEM) supplemented with 5% FBS; and PE murine keratinocytes (a gift from Stuart H. Yuspa, National Cancer Institute, Bethesda, Md.) were cultured in Eagle's minimum essential medium (EMEM) with 8% FBS, treated with Chelex resin (Bio-Rad) to remove Ca^2+.
(§3) Cells (20,000 per well) were grown for 24 h in 96-well plates, then exposed to serial dilutions of sulforaphane for either 24 h (for glutathione determination) or 48 h (for NQO1 determination), and finally lysed in 0.08% digitonin. An aliquot (25 μl) was used for protein analysis. Activity of NQO1 was determined by the Prochaska test (29,30). To measure the intracellular glutathione levels, 25 μl of cell lysate received 50 μl of ice-cold metaphosphoric acid (50 g/liter) in 2 mM EDTA to precipitate cellular protein. After 10 min at 4° C., plates were centrifuged at 1,500 g for 15 min and 50 μl of the resulting supernatant fractions were transferred to a parallel plate. To each of these wells, 50 μl of 200 mM sodium phosphate buffer, pH 7.5, containing 10 mM EDTA, were added and total cellular glutathione was determined by rate measurements in a recycling assay (31,32).

quinone reductase (NQO1) = details: 48 h exposure; for intracellular level of NQO1: serial dilutions
Procedure: as §1, §2, §3

NQO1 [5] = details: topical, extract containing 1 μmol sulforaphane, skin 24 h later, vs vehicle
Description: (§4) The phase 2 response was next evaluated in vivo in […] hairless mice. Female SKH-1 hairless mice (4 weeks old) were obtained from Charles River Breeding Laboratories (Wilmington, Mass.) and were acclimatized in our animal facility for 2 weeks before the start of the experiment. The animals were kept on a 12-h light/12-h dark cycle, 35% humidity, and given free access to water and pelleted AIN 76A diet (Harlan TekLad, free of inducers). All animal experiments were in compliance with the National Institutes of Health Guidelines and were approved by the Johns Hopkins University Animal Care and Use Committee.
(§5) Seven-week-old SKH-1 hairless mice (5 per group) were treated topically on their backs with either 100 μl of a standardized myrosinase-hydrolyzed broccoli sprout extract containing 1 μmol of sulforaphane, or vehicle (100 μl of 80% acetone:20% water, v/v). The animals were euthanized 24 h later and their dorsal skins were dissected using a rectangular template (2.5×5 cm) and frozen in liquid N2. Skin samples were pulverized in liquid N2 and 100 mg of the resulting powder was homogenized in 1 ml of either 0.25 M sucrose buffered with 10 mM Tris-HCl, pH 7.4, for analysis of NQO1 enzymatic activity and protein content, or ice-cold metaphosphoric acid (50 g/liter) in 2 mM EDTA for analysis of glutathione. […]

glutathione [6] = details: topical, extract containing 1 μmol sulforaphane, skin 24 h later, vs vehicle
Description: as §4, §5

RAW 264.7 cells = assay: cells; details: Mus musculus, RAW264.7, 24 h, read-out: IC50, inhibition of NO formation
Procedure: (§6) Cells were treated with various concentrations of sulforaphane and either IFNγ (10 ng/ml) or lipopolysaccharide (LPS; 3 ng/ml) for 24 h. NO in the medium was measured as nitrite by the Griess reaction (A), and iNOS induction was detected by Northern (B) and Western (C) blotting.

iNOS = details: IFN-γ 10 ng/ml or LPS 3 ng/ml overnight
Procedure: as §6
RAW 264.7 macrophages (2×10^6 cells/well) were incubated with sulforaphane and either 10 ng/ml of IFN-γ or 3 ng/ml of LPS overnight. For Northern blots, total RNA was isolated with Trizol reagent (Invitrogen) and prepared for blotting as previously described (33). Probes for iNOS and GAPDH were radiolabeled with […] with random primers. For Western blots, total cell lysates were subjected to SDS/PAGE, transferred to a membrane, and probed with iNOS and β-actin antibodies (Santa Cruz Biotechnology).

myeloperoxidase (MPO) = assay: Skin myeloperoxidase (MPO) after 311-nm UV radiation; assay type: in vivo, SKH-1 hairless mice; details: three topical doses at 24-h intervals, 700 mJ/cm^2 311-nm UV 24 h after last dose
Procedure: (§7) The backs of SKH-1 hairless mice were treated topically with three doses at 24-h intervals of: (i) broccoli sprout extract containing 0.5 μmol of sulforaphane in 50 μl of 80% acetone/20% water (vol/vol) applied to the caudal area, and (ii) solvent applied to the rostral area. The animals received 700 mJ/cm^2 of 311-nm UV radiation 24 h after the last dose and were euthanized 24 h later, and their dorsal skin was harvested. (A) Fresh frozen 9-μm-thick sections of skin were fixed with paraformaldehyde and stained with H&E. (Scale bar 100 μm). (B) Mice were irradiated with a range of doses of UV radiation and euthanized 24 h later. (C) MPO-specific activity was measured in supernatant fractions of total homogenates prepared from liquid nitrogen-frozen and pulverized dorsal skin, and its protein levels were detected by Western blots with anti-MPO antibody (Hycult Biotechnology, Uden, The Netherlands). […] (D and E) MPO-specific (D) and NQO1-specific (E) activities were measured in supernatant fractions of total skin homogenates from mice treated with solvent (black bars), sulforaphane (gray bars), and broccoli sprout extract (white bars) and are expressed as ratios of each treatment to the non-irradiated control. Average values±SD are shown. Eight animals were used in the control group, and four in each of the treatment groups.

NQO1 [7] = assay: Skin NQO1 specific activity after 311-nm UV radiation; assay type: in vivo, SKH-1 hairless mice; details: three topical doses at 24-h intervals, 700 mJ/cm^2 311-nm UV 24 h after last dose
Procedure: as §7

HaCaT cells = HaCaT cells at concentrations giving >10-fold NQO1 induction
PE murine keratinocytes = details: 5 μM for 24 h, UVA 10 J/cm^2, PE cells
Procedure: Cells (50,000 per well) were plated on 24-well plates, treated with 5 μM sulforaphane for 24 h, washed with DPBS, and then exposed to UVA (10 J/cm^2). Reactive oxygen intermediates generated by the UV radiation were quantified by the fluorescent probe 2′,7′-dichlorodinitrofluorescein and fluorescence intensity was measured (expressed as a ratio of exposed to non-exposed cells).
PE cells (50,000 per well) were seeded into 24-well plates and grown for 48 h. The cells were then exposed to 1 μM or 5 μM sulforaphane for 24 h. On the day of the experiments, after removing the medium, the cells were incubated with 100 μM 2′,7′-dichlorodinitrofluorescein diacetate in 500 μl of fresh medium (Molecular Probes, Eugene, Oreg.) for 30 min. The medium containing the fluorescent probe was then removed, the cells were washed with DPBS, and exposed to UVA radiation (10 J/cm^2). Control cells were kept in the dark. Cells were detached with trypsin, suspended in 2.0 ml of DPBS, and the intensity of fluorescence was determined in cell suspensions at 520 nm with an excitation of 485 nm in 2-ml cuvettes in a Perkin-Elmer LS50 spectrofluorimeter.

[8] = in vivo; cited from earlier work

plasma levels of sulforaphane and its metabolites ([2]; high dose 50 μmol/day glucoraphanin): 2500 nM
plasma levels of sulforaphane and its metabolites ([2]; low dose 10 μmol/day glucoraphanin): 2200 nM
Compound: C[S+]([O-])CCCC/C(=N\OS(=O)(=O)O)S[C@@H]1O[C@H](CO)[C@@H](O)[C@H](O)[C@H]1O (stereo partly shown) [glucoraphanin]
inhibition in the total tumor volume per mouse ([1]; high dose 50 μmol/day): 70%
reduction of tumor incidence (percent animals with tumors) ([1]; high dose 50 μmol/day glucoraphanin as freeze-dried broccoli sprout extract powder in diet): 35%
reduction of tumor multiplicity (number of tumors per mouse) ([1]; high dose 50 μmol/day): 72%
number of tumors per mouse ([1]; high dose 50 μmol/day): 1.2
inhibition in the total tumor volume per mouse ([1]; low dose 10 μmol/day): 70%
reduction of tumor incidence (percent animals with tumors) ([1]; low dose 10 μmol/day glucoraphanin as freeze-dried broccoli sprout extract powder in diet): 25%
reduction of tumor multiplicity (number of tumors per mouse) ([1]; low dose 10 μmol/day): 47%
number of tumors per mouse ([1]; low dose 10 μmol/day): 2.3
fraction converted to sulforaphane upon ingestion [3]: about 10%

Compound: C[S+]([O-])CCCCN=C=S (stereo not shown) [sulforaphane, 4-methylsulfinylbutyl isothiocyanate]
intracellular level of glutathione (glutathione [4]; HaCaT human keratinocytes): increased in a dose-dependent manner
intracellular level of glutathione (glutathione [4]; PE murine keratinocytes): increased in a dose-dependent manner
magnitude of NQO1 induction (quinone reductase (NQO1); HaCaT cells): > 10 fold
intracellular level of NQO1 (quinone reductase (NQO1); HaCaT human keratinocytes): increased in a dose-dependent manner
intracellular level of NQO1 (quinone reductase (NQO1); PE murine keratinocytes): increased in a dose-dependent manner
induction of NQO1 (NQO1 [5]): ~50%
elevation of the total glutathione levels (glutathione [6]): ~15%
IC50 (RAW 264.7 cells): 300 nM
synthesis of iNOS mRNA (iNOS; Northern blot): inhibited
synthesis of iNOS protein (iNOS; Western blot): inhibited
reduction of tumor multiplicity (number of tumors per mouse) ([1]; high dose 50 μmol/day): 72%
reduction of tumor multiplicity (number of tumors per mouse) ([1]; low dose 10 μmol/day): 47%
UV radiation-induced MPO protein and enzyme activity (myeloperoxidase (MPO)): suppressed the increases of MPO protein and enzyme activity levels; also recorded: equivalent protection against the UV radiation-induced MPO elevation
NQO1 specific activity in skin homogenates (NQO1 [7]): increased the specific activities; also recorded: restoration of the UV radiation decreased NQO1 levels
cytotoxicity (HaCaT cells): without any apparent evidence of cytotoxicity
reduction in reactive oxygen intermediates generated by the UV radiation (PE murine keratinocytes): 50%
tissue half-life [8]: 1 to 2 h
